In US6656510B2, “Hyperforin derivatives, use thereof and formulations containing them” (Indena S.p.A., priority 1998, dated 2003):

How the values were obtained:
[1] = system: escape deficit (antidepressive effect); test: escape deficit development test; type: in vivo; conditions: rats, 2 week pre-treatment, escapes out of 30 stimuli
Experimental: In the escape deficit development test, rats are restrained and subjected to mild, short, unavoidable electric shocks for 50 minutes. This is known as the pre-test. 24 hours later, the rats are tested for their ability to avoid the same stimuli on their tails, in a situation where […]. A rat on the average makes 26 escapes out of 30 stimuli (naive controls), whereas a rat subjected to pre-test only makes 1 to 3 escapes (ED controls). […] The compounds of the invention, when administered to rats one hour before their exposure to the unavoidable stress, cause an increase in reactivity to the escape test. This increase in reactivity is enhanced when pre-treatment is effected for 1 to 2 weeks.

[2] = after only a few weeks; WO 97/13489; cited from earlier work

SMILES | Number of Escapes ([1]; 6.25 mg/Kg) | Number of Escapes ([1]; 12.5 mg/Kg) | Number of Escapes ([1]; 25.0 mg/Kg) | hyperforin content of a water-alcohol extract of St. Johns wort [2]
CC(=O)OC1=C(CC=C(C)C)C(=O)[C@]2(C(=O)C(C)C)C(=O)[C@]1(CC=C(C)C)C[C@H](CC=C(C)C)[C@@]2(C)CCC=C(C)C [Hyperforin acetate] | 12.6 ± 2.8 | 17.3 ± 1.9 | 21.2 ± 1.3 | –
CC(C)=CCC[C@]1(C)[C@@H](CC=C(C)C)C[C@@]2(CC=C(C)C)C(=O)[C@]1(C(=O)C(C)C)C(=O)C(CC=C(C)C)=C2O [hyperforin] | – | – | – | falls almost to zero
